Source: ChEMBL document CHEMBL4507293 (2021)

How the values were obtained:
[1] = biological target: Cyclin-dependent kinase 4 (Homo sapiens) (UniProt P11802); conditions: Compound concentration 100.0 nM
[2] = biological target: Discoidin domain-containing receptor 2 (Homo sapiens) (UniProt Q16832); conditions: Compound concentration 100.0 nM
[3] = system: Epidermal growth factor receptor (Homo sapiens), P00533 [T790M]; conditions: Compound concentration 100.0 nM
[4] = biological target: Cyclin-dependent kinase-like 2 (Homo sapiens) (UniProt Q92772); conditions: Compound concentration 100.0 nM
[5] = biological target: Casein kinase I isoform alpha (Homo sapiens) (UniProt P48729); conditions: Compound concentration 100.0 nM
[6] = biological target: Serine/threonine-protein kinase Nek6 (Homo sapiens) (UniProt Q9HC98); conditions: Compound concentration 100.0 nM
[7] = system: Phosphatidylinositol 4,5-bisphosphate 3-kinase catalytic subunit alpha isoform (Homo sapiens), P42336 [C420R]; conditions: Compound concentration 100.0 nM
Chain of Phosphatidylinositol 4,5-bisphosphate 3-kinase catalytic subunit alpha isoform (Homo sapiens), P42336 [C420R] (P42336 whole entry C420R, canonical isoform): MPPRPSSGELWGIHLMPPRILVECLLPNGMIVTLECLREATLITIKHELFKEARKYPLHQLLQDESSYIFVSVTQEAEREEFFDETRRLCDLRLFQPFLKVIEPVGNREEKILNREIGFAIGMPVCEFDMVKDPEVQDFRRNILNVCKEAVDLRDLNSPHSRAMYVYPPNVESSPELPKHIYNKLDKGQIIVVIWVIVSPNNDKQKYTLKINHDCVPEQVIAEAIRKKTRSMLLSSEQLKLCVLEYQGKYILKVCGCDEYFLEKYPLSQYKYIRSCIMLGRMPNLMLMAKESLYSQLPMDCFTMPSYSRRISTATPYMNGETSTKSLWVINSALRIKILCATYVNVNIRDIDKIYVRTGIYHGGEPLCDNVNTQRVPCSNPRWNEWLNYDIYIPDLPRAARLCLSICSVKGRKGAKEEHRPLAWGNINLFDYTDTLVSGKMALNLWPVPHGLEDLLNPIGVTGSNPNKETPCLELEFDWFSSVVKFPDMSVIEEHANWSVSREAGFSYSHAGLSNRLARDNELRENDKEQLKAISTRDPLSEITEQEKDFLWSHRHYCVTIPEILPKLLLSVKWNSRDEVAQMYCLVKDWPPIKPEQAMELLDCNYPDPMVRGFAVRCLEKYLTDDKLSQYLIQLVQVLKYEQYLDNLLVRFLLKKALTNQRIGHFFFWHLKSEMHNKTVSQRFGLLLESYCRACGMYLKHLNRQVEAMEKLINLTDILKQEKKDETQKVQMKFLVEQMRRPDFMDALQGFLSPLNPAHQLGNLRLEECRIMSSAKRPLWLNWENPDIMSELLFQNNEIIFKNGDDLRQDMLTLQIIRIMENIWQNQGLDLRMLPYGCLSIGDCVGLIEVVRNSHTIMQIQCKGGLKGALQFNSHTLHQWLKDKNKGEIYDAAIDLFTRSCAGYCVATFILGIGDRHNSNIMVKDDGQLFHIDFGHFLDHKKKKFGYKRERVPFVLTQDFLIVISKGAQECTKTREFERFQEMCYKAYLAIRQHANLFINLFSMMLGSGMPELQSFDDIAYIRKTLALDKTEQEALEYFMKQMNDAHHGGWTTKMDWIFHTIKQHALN

[8] = biological target: Testis-specific serine/threonine-protein kinase 1 (Homo sapiens) (UniProt Q9BXA7); conditions: Compound concentration 100.0 nM
[9] = biological target: Myosin-IIIa (Homo sapiens) (UniProt Q8NEV4); conditions: Compound concentration 100.0 nM
[10] = biological target: Serine/threonine-protein kinase N1 (Homo sapiens) (UniProt Q16512); conditions: Compound concentration 100.0 nM
[11] = biological target: Cyclin-dependent kinase 4 (Homo sapiens) (UniProt P11802); conditions: Compound concentration 100.0 nM; remark: listed apart in the source
[12] = biological target: Ribosomal protein S6 kinase alpha-3 (Homo sapiens) (UniProt P51812); conditions: Compound concentration 100.0 nM
[13] = biological target: Cyclin-dependent kinase-like 3 (Homo sapiens) (UniProt Q8IVW4); conditions: Compound concentration 100.0 nM
[14] = biological target: Phosphatidylinositol 4-phosphate 5-kinase type-1 alpha (Homo sapiens) (UniProt Q99755); conditions: Compound concentration 100.0 nM
[15] = biological target: LIM domain kinase 2 (Homo sapiens) (UniProt P53671); conditions: Compound concentration 100.0 nM
[16] = biological target: cGMP-inhibited 3',5'-cyclic phosphodiesterase 3A (Homo sapiens, UniProt Q14432); assay: Biochemical assay (PDE3A)
[17] = species: Rattus norvegicus; conditions: Compound concentration 10.0 uM
[18] = biological target: Mitogen-activated protein kinase kinase kinase 13 (Homo sapiens) (UniProt O43283); conditions: Compound concentration 100.0 nM
[19] = biological target: Serine/threonine-protein kinase PAK 1 (Homo sapiens) (UniProt Q13153); conditions: Compound concentration 100.0 nM
[20] = biological target: Myosin-IIIb (Homo sapiens) (UniProt Q8WXR4); conditions: Compound concentration 100.0 nM
Chain of Myosin-IIIb (Homo sapiens) (Q8WXR4 whole entry, the tested form may be a part): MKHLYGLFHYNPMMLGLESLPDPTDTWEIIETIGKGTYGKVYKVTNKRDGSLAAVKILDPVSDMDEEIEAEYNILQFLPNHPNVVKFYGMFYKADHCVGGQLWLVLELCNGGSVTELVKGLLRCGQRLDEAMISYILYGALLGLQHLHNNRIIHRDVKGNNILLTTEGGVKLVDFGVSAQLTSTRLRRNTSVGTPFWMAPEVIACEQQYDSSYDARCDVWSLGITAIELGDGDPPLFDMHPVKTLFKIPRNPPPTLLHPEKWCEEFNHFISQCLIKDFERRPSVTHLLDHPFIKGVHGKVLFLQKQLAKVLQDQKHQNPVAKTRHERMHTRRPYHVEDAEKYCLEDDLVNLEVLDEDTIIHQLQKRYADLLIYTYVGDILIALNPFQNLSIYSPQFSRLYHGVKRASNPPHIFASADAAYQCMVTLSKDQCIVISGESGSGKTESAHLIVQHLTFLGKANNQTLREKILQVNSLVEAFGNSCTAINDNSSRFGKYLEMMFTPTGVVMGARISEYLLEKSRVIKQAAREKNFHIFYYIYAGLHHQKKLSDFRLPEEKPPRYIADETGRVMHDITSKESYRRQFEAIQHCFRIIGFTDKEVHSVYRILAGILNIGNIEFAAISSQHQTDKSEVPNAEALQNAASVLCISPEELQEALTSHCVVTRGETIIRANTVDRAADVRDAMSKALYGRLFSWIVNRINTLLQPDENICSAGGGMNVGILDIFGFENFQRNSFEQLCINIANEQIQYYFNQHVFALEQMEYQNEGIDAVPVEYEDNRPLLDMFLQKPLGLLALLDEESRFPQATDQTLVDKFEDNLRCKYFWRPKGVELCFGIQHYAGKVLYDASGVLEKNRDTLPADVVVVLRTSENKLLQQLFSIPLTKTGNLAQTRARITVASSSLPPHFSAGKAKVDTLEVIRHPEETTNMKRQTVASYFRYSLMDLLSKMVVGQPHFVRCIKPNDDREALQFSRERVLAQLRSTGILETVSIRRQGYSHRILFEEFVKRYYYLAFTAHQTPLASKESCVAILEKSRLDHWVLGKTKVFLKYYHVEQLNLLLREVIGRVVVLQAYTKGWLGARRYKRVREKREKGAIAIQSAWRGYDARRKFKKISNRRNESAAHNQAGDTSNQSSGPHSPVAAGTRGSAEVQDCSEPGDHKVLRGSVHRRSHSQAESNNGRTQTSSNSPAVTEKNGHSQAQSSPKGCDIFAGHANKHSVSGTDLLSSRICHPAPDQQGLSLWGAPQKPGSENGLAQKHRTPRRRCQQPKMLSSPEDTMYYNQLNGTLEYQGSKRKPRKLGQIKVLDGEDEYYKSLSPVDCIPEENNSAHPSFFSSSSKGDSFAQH

[21] = biological target: Phosphatidylinositol 3-kinase C2 domain-containing subunit gamma (Homo sapiens) (UniProt O75747); conditions: Compound concentration 100.0 nM
[22] = biological target: D(4) dopamine receptor (Homo sapiens) (UniProt P21917); conditions: Compound concentration 10.0 uM
[23] = biological target: Ephrin type-B receptor 2 (Homo sapiens) (UniProt P29323); conditions: Compound concentration 100.0 nM
Chain of Ephrin type-B receptor 2 (Homo sapiens) (P29323 whole entry): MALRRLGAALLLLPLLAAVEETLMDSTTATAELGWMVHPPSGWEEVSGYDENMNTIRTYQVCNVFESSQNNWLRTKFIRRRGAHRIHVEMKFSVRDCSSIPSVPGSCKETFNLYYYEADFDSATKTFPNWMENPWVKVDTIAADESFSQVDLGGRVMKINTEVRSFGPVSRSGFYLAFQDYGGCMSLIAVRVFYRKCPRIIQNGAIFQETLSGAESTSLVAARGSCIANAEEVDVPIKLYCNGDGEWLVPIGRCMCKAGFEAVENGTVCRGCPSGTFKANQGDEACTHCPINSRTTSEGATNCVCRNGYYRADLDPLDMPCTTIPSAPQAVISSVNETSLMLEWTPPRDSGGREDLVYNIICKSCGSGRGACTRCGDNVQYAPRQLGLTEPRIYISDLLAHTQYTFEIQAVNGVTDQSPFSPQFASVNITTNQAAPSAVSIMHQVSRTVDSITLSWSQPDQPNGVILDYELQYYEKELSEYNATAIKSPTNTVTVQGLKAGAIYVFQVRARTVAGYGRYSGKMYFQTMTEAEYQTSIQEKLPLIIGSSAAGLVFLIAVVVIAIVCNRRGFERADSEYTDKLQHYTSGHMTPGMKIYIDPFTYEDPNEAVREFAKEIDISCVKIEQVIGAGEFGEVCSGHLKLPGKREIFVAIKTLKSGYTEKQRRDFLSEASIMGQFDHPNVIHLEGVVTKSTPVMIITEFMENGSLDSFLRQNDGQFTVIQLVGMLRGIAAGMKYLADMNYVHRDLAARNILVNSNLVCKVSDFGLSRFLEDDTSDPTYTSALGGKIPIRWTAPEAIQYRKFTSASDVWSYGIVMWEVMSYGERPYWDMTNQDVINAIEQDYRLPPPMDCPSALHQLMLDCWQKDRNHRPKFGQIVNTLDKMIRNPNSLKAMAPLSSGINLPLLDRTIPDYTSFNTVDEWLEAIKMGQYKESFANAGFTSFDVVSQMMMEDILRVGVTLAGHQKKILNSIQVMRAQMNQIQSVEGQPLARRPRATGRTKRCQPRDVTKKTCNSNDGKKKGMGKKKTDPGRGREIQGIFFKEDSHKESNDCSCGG

[24] = biological target: Dual specificity tyrosine-phosphorylation-regulated kinase 1B (Homo sapiens) (UniProt Q9Y463); conditions: Compound concentration 100.0 nM
[25] = biological target: Phosphatidylinositol 5-phosphate 4-kinase type-2 beta (Homo sapiens) (UniProt P78356); conditions: Compound concentration 100.0 nM
[26] = biological target: Mitogen-activated protein kinase 3 (Homo sapiens) (UniProt P27361); conditions: Compound concentration 100.0 nM
[27] = biological target: Serine/threonine-protein kinase BRSK1 (Homo sapiens) (UniProt Q8TDC3); conditions: Compound concentration 100.0 nM
[28] = biological target: Calcium/calmodulin-dependent protein kinase type II subunit alpha (Homo sapiens) (UniProt Q9UQM7); conditions: Compound concentration 100.0 nM
[29] = biological target: Receptor tyrosine-protein kinase erbB-2 (Homo sapiens) (UniProt P04626); conditions: Compound concentration 100.0 nM
[30] = biological target: Inhibitor of nuclear factor kappa-B kinase subunit epsilon (Homo sapiens) (UniProt Q14164); conditions: Compound concentration 100.0 nM
[31] = biological target: Serine/threonine-protein kinase 4 (Homo sapiens) (UniProt Q13043); conditions: Compound concentration 100.0 nM
Chain of Serine/threonine-protein kinase 4 (Homo sapiens) (Q13043 whole entry): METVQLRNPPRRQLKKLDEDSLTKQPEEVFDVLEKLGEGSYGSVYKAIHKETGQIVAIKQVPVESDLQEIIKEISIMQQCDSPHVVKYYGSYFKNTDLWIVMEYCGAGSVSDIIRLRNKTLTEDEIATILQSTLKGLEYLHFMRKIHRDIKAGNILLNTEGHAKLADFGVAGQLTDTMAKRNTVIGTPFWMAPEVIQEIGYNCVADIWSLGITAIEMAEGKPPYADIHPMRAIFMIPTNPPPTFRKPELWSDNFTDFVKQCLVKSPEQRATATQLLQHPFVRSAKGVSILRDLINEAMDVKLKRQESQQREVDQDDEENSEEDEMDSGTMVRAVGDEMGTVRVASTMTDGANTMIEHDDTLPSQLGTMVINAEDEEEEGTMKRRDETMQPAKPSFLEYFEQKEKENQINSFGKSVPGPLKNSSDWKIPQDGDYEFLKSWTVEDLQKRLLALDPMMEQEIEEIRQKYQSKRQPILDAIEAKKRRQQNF

[32] = biological target: Tyrosine-protein kinase Fgr (Homo sapiens) (UniProt P09769); conditions: Compound concentration 100.0 nM
[33] = biological target: Fibroblast growth factor receptor 2 (Homo sapiens) (UniProt P21802); conditions: Compound concentration 100.0 nM
[34] = biological target: Tyrosine-protein kinase Fes/Fps (Homo sapiens) (UniProt P07332); conditions: Compound concentration 100.0 nM
[35] = biological target: Glycogen synthase kinase-3 beta (Homo sapiens) (UniProt P49841); conditions: Compound concentration 100.0 nM
[36] = biological target: Casein kinase I isoform gamma-2 (Homo sapiens) (UniProt P78368); conditions: Compound concentration 100.0 nM
[37] = biological target: 5-hydroxytryptamine receptor 1B (Homo sapiens) (UniProt P28222); conditions: Compound concentration 10.0 uM
[38] = biological target: Histamine H3 receptor (Homo sapiens) (UniProt Q9Y5N1); conditions: Compound concentration 10.0 uM
[39] = biological target: D(1A) dopamine receptor (Homo sapiens) (UniProt P21728); conditions: Compound concentration 10.0 uM
[40] = biological target: Tyrosine-protein kinase ABL2 (Homo sapiens) (UniProt P42684); conditions: Compound concentration 100.0 nM
[41] = biological target: NUAK family SNF1-like kinase 2 (Homo sapiens) (UniProt Q9H093); conditions: Compound concentration 100.0 nM
[42] = biological target: Mitogen-activated protein kinase 12 (Homo sapiens) (UniProt P53778); conditions: Compound concentration 100.0 nM
[43] = biological target: Serine/threonine-protein kinase Nek2 (Homo sapiens) (UniProt P51955); conditions: Compound concentration 100.0 nM
[44] = biological target: Myotonin-protein kinase (Homo sapiens) (UniProt Q09013); conditions: Compound concentration 100.0 nM
[45] = biological target: SRSF protein kinase 3 (Homo sapiens) (UniProt Q9UPE1); conditions: Compound concentration 100.0 nM
Chain of SRSF protein kinase 3 (Homo sapiens) (Q9UPE1 whole entry): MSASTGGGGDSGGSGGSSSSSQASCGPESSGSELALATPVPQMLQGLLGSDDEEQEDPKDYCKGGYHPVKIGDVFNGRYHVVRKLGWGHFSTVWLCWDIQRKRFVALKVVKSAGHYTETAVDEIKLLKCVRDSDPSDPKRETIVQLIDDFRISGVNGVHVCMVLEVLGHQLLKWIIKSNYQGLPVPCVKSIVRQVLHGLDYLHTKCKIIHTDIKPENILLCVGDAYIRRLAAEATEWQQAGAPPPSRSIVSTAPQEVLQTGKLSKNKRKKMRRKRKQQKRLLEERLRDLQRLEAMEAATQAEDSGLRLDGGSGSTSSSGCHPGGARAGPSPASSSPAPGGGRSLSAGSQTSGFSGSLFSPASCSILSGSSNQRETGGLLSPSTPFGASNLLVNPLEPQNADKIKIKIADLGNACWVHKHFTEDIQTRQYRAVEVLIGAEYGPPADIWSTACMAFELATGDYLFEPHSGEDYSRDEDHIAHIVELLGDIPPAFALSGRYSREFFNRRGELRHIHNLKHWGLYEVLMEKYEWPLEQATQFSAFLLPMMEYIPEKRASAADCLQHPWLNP

[46] = biological target: Tyrosine-protein kinase Mer (Homo sapiens) (UniProt Q12866); conditions: Compound concentration 100.0 nM

Chain of Cyclin-dependent kinase 4 (Homo sapiens) (P11802 whole entry, the tested form may be a part): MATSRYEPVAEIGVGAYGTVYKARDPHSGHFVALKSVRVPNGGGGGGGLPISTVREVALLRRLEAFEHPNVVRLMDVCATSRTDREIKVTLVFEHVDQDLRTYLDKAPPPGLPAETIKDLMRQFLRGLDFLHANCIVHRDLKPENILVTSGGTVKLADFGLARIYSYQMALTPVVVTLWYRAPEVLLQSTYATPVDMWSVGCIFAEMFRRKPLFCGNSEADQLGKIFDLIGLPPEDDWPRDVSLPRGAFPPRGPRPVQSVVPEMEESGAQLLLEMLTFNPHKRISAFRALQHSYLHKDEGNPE

Compound `COCCOc1nc(-c2ccc(Cl)nc2)nc2c1CN(C(=O)c1ncn3ccccc13)CC2` [THPP-1] has a residual activity [1] of 100%, a residual activity [2] of 100% and a residual activity [3] of 61%. For the same compound, the residual activity [4] was 98%, the residual activity [5] was 98% and the residual activity [6] was 100%. It also gave a residual activity [7] of 95%, a residual activity [8] of 100% and a residual activity [9] of 100%. The residual activity [10] was 100%, the residual activity [11] was 93% and the residual activity [12] was 100%. The residual activity [13] was 96%, the residual activity [14] was 100% and the residual activity [15] was 100%. For the same compound, the Ki [16] was 3.3 µM (not active), the inhibition [17] was 26.1% and the residual activity [18] was 87%. It also gave a residual activity [19] of 100%, a residual activity [20] of 67% and a residual activity [21] of 100%. For the same compound, the inhibition [22] was 15.7%, the residual activity [23] was 79% and the residual activity [24] was 83%. The residual activity [25] was 59%, the residual activity [26] was 89% and the residual activity [27] was 100%. The residual activity [28] was 100%, the residual activity [29] was 82% and the residual activity [30] was 100%. For the same compound, the residual activity [31] was 100%, the residual activity [32] was 100% and the residual activity [33] was 100%. For the same compound, the residual activity [34] was 100%, the residual activity [35] was 100% and the residual activity [36] was 94%. The inhibition [37] was 23.3%, the inhibition [38] was 5.45% and the inhibition [39] was -8.34%. The residual activity [40] was 100%, the residual activity [41] was 100% and the residual activity [42] was 72%. The residual activity [43] was 100%, the residual activity [44] was 72% and the residual activity [45] was 66%. For the same compound, the residual activity [46] was 89%.
`CC(C)CC(=O)N1CCc2nc(-c3ccc(Br)cc3)nc(N(C)Cc3ccccc3)c2C1` [THPP-1-NC] was tested, and the residual activity [1] was 93%, the residual activity [2] was 97% and the residual activity [3] was 74%. For the same compound, the residual activity [4] was 87%, the residual activity [5] was 73% and the residual activity [6] was 100%. The residual activity [7] was 87%, the residual activity [8] was 99% and the residual activity [9] was 96%. It also gave a residual activity [10] of 100%, a residual activity [11] of 100% and a residual activity [12] of 94%. For the same compound, the residual activity [13] was 89%, the residual activity [14] was 100% and the residual activity [15] was 100%. For the same compound, the Ki [16] was > 50 µM (not active), the inhibition [17] was 41% and the residual activity [18] was 66%. The residual activity [19] was 100%, the residual activity [20] was 78% and the residual activity [21] was 100%. The inhibition [22] was 7.93%, the residual activity [23] was 80% and the residual activity [24] was 77%. For the same compound, the residual activity [25] was 61%, the residual activity [26] was 88% and the residual activity [27] was 100%. It also gave a residual activity [28] of 100%, a residual activity [29] of 82% and a residual activity [30] of 100%. The residual activity [31] was 100%, the residual activity [32] was 99% and the residual activity [33] was 100%. The residual activity [34] was 100%, the residual activity [35] was 100% and the residual activity [36] was 86%. The inhibition [37] was 12.9%, the inhibition [38] was 18.3% and the inhibition [39] was 18.5%. It also gave a residual activity [40] of 100%, a residual activity [41] of 100% and a residual activity [42] of 79%. For the same compound, the residual activity [43] was 100%, the residual activity [44] was 87% and the residual activity [45] was 79%. The residual activity [46] was 100%.
